# From paper PMC11356900, “Synthesis, Structural Properties and Biological Activities of Novel Hydrazones of 2-, 3-, 4-Iodobenzoic Acid” (Molecules, 2024)
# Legend:
# [1] = tested on: Staphylococcus epidermidis ATCC 12228; assay: Broth microdilution MIC/MBC; details: ATCC12228
# [2] = tested on: Bordetella bronchiseptica ATCC 4617; assay: Broth microdilution MIC/MBC; details: ATCC4617
# [3] = tested on: Escherichia coli ATCC 25922; assay: Broth microdilution MIC/MBC; details: ATCC25922
# [4] = tested on: Micrococcus luteus ATCC 10240; assay: Broth microdilution MIC/MBC; details: Micrococcus luteus, ATCC10240
# [5] = tested on: Candida albicans ATCC 10231; assay: Broth microdilution MIC/MFC; assay type: cell-based; details: for MIC: ATCC10231, read-out: MIC
# Text: (§1) Procedures of in vitro antimicrobial assays are described in Supplementary Materials.
# (§2) 2. Microbiology – in vitro antimicrobial activity assays […]
# (§3) using the broth microdilution method according to the European Committee on Antimicrobial Susceptibility Testing (EUCAST) and Clinical and Laboratory Standards Institute guidelines against a panel of reference and clinical or saprophytic strains of mi croorganisms, including the Gram-positive bacteria: Staphylococcus aureus ATCC 43300 (Methi-cillin Resistant S. aureus – MRSA), Staphylococcus aureus ATCC 29213 (Methicillin Susceptible S. aureus – MSSA), Staph-ylococcus epidermidis ATCC 12228, Micrococcus luteus ATCC 10240, Bacillus subtilis ATCC 6633 and Bacillus cereus ATCC 10876), Gram-negative bacteria: Bordetella bronchiseptica ATCC 4617, Escherichia coli ATCC 25922, Klebsiella pneumoniae ATCC 13883, Proteus mirabilis ATCC 12453, Salmonella typhimurium ATCC 14028 and Pseudomonas aeruginosa ATCC 9027, and fungi belonging to yeasts: Candida albicans ATCC 10231, Candida albicans ATCC 2091, Candida parapsilosis ATCC 22019, Candida glabrata ATCC 90030 and Candida krusei ATCC 14243. The microorganisms belonging to ATCC originated from American Type Culture Collection, routinely used for the evaluation of antimicrobials. All the used microbial cultures were first subcultured on nutrient agar or Sabouraud agar at 35°C for 18-24 h or 30°C for 24-48 h for bacteria […]
# (§4) The surface of Mueller-Hinton agar (for bacteria) and RPMI 1640 with MOPS (for fungi) were inoculated with the suspensions of bacterial or fungal species. Microbial suspensions were prepared in sterile saline with an optical density of McFarland standard scale 0.5. The samples containing the compounds were dissolved in dimethyl sulfoxide (DMSO).
# (§5) Furthermore, the bacterial and fungal suspensions put onto the Petri dishes with solid media containing 2 mg/mL of the tested compounds followed were incubated at 37°C for 24h and 30°C for 48h for bacteria and fungi, respectively.
# (§6) The inhibition of microbial growth was estimated comparing with a control culture prepared without any tested sam- […]
# (§7) antifungal compounds, respectively.
# (§8) Subsequently, MIC (Minimal Inhibitory Concentration) of the compounds was examined by the microdilution broth method, using their two-fold dilutions in Mueller-Hinton broth (for bacteria) and RPMI 1640 broth with MOPS (for fungi) prepared in the 96-well polystyrene plates. The final concentrations of the compounds ranged from 1000 to 0.488 µg/mL. Microbial suspensions were prepared in 0.85% NaCl with an optical density of 0.5 McFarland standard. Next each bacterial or fungal suspension was added per each well containing broth and various concentrations of the exam-ined compounds. After incubation, the MIC was assessed spectrophotometrically as the lowest concentration of the […]
# (§9) Appropriate DMSO, growth and sterile controls were carried out. The medium with no tested substances was used as a control The MBC (Minimal Bactericidal Concentration) and MFC (Minimal Fungicidal Concentration) are defined as the lowest concentration of the compounds that is required to kill a particular bacterial or fungal species. The MBC/MFC was determined by removing the culture used for the MIC determination from each well and spotted onto the appro-priate agar medium. The plates were incubated under appropriate conditions for bacteria and fungi. The lowest com-pounds concentration with no visible growth observed was assessed as a bactericidal/fungicidal concentration. All the experiments were repeated three times and the representative data are presented.
# (§10) 1. European Committee for Antimicrobial Susceptibility Testing (EUCAST) Determination of minimum inhibitory con-centrations (MICs) of antibacterial agents by broth dilution. EUCAST discussion document E. Dis 5.1. Clin. Microbiol.
# (§11) 2. Clinical and Laboratory Standards Institute. Reference method for broth dilution antifungal susceptibility testing of […]
# [6] = tested on: Candida albicans ATCC 2091; assay: Broth microdilution MIC/MFC; assay type: cell-based; details: ATCC2091, read-out: MIC
# Text: as §1, §2, §3, §4, §5, §6, §7, §8, §9, §10, §11
# [7] = tested on: Candida parapsilosis ATCC 22019; assay: Broth microdilution MIC/MFC; assay type: cell-based; details: Lodderomyces parapsilosis; for MIC: ATCC22019, read-out: MIC
# Text: as §1, §2, §3, §4, §5, §6, §7, §8, §9, §10, §11
# [8] = tested on: Candida glabrata ATCC 90030; assay: Broth microdilution MIC/MFC; assay type: cell-based; details: Nakaseomyces glabratus; for MIC: ATCC90030, read-out: MIC
# Text: as §1, §2, §3, §4, §5, §6, §7, §8, §9, §10, §11
# [9] = tested on: Candida krusei ATCC 14243; assay: Broth microdilution MIC/MFC; assay type: cell-based; details: Pichia kudriavzevii, ATCC14243, read-out: MIC
# Text: as §1, §2, §3, §4, §5, §6, §7, §8, §9, §10, §11
# [10] = tested on: Klebsiella pneumoniae ATCC 13883; assay: Broth microdilution MIC/MBC; details: ATCC13883
# [11] = tested on: Staphylococcus aureus ATCC 43300; assay: Broth microdilution MIC/MBC; details: ATCC43300 / MRSA
# [12] = tested on: Proteus mirabilis ATCC 12453; assay: Broth microdilution MIC/MBC; details: ATCC12453
# [13] = tested on: Staphylococcus aureus ATCC 25923; assay: Broth microdilution MIC/MBC; details: Staphylococcus aureus, ATCC25923
# [14] = tested on: Staphylococcus aureus ATCC 29213; assay: Broth microdilution MIC/MBC; details: ATCC29213
# [15] = tested on: Bacillus cereus ATCC 10876; assay: Broth microdilution MIC/MBC; details: Bacillus cereus, ATCC10876
# [16] = tested on: Salmonella typhimurium ATCC 14028; assay: Broth microdilution MIC/MBC; details: Salmonella enterica
# Gram-positive bacteria = assay: Broth microdilution, summary over reference Gram-positive bacteria; assay type: cell-based
# Text: as §1, §2, §3, §4, §5, §6, §7, §8, §9, §10, §11
# [17] = tested on: Bacillus subtilis ATCC 6633; assay: Broth microdilution MIC/MBC; details: ATCC6633
# [18] = tested on: Pseudomonas aeruginosa ATCC 9027; assay: Broth microdilution MIC/MBC; details: ATCC9027
# Candida spp. = assay: Broth microdilution, summary over reference yeasts; assay type: cell-based; details: reference yeasts from Candida spp.
# Text: as §1, §2, §3, §4, §5, §6, §7, §8, §9, §10, §11
Structure (SMILES),MBC [1],MIC [1],MIC [2],MIC [3],MBC [4],MIC [4],MIC [5],MIC [6],MIC [7],MIC [8],MIC [9],melting point,MIC [10],MIC [11],MIC [12],MIC [13],MIC [14],MIC [15],MIC [16],MIC [17],also measured
"NNC(=O)c1cccc(I)c1 [Compound 5, 3-iodobenzohydrazide]",> 1000 µg/mL,1000 µg/mL,> 1000 µg/mL,> 1000 µg/mL,> 1000 µg/mL,1000 µg/mL,> 1000 µg/mL,> 1000 µg/mL,> 1000 µg/mL,> 1000 µg/mL,> 1000 µg/mL,134 to 140 °C,> 1000 µg/mL,> 1000 µg/mL,> 1000 µg/mL,> 1000 µg/mL,> 1000 µg/mL,> 1000 µg/mL,> 1000 µg/mL,1000 µg/mL,MIC (Gram-positive bacteria): 31.2 to 1000 µg/mL; MBC [17]: > 1000 µg/mL; MIC [18]: > 1000 µg/mL
"NNC(=O)c1ccc(I)cc1 [Compound 6, 4-iodobenzohydrazide]",> 1000 µg/mL,1000 µg/mL,> 1000 µg/mL,> 1000 µg/mL,> 1000 µg/mL,500 µg/mL,> 1000 µg/mL,> 1000 µg/mL,250 µg/mL,> 1000 µg/mL,> 1000 µg/mL,161 to 162 °C,> 1000 µg/mL,> 1000 µg/mL,> 1000 µg/mL,> 1000 µg/mL,> 1000 µg/mL,> 1000 µg/mL,> 1000 µg/mL,1000 µg/mL,"MFC ([7]; ATCC22019, read-out: MFC): > 1000 µg/mL; MBC [17]: > 1000 µg/mL; MIC [18]: > 1000 µg/mL"
"O=C(N/N=C/c1cc(O)ccc1O)c1ccccc1I [Compound 11, N-[(2,5-dihydroxyphenyl)methylidene]-2-iodobenzohydrazide]",–,> 1000 µg/mL,–,–,–,> 1000 µg/mL,1000 µg/mL,> 1000 µg/mL,> 1000 µg/mL,1000 µg/mL,> 1000 µg/mL,211 to 214 °C,–,> 1000 µg/mL,–,> 1000 µg/mL,> 1000 µg/mL,> 1000 µg/mL,–,> 1000 µg/mL,"MFC ([5]; ATCC10231, read-out: MFC): > 1000 µg/mL; MFC ([8]; ATCC90030, read-out: MFC): > 1000 µg/mL; antibacterial activity in words (Gram-positive bacteria; reference Gram-positive bacteria / studied bacteria): no antimicrobial effect; antifungal activity in words (Candida spp.): mild activity or were inactive"
